The values below come from patent publication US20260199287A1, “LIPO-HYDROXAMIC ACID DERIVATIVE AND PHARMACEUTICAL USE THEREOF” (MediciBIO Co., Ltd, priority 2022, published 2026).

For the test, the system named is human corneal endothelial cells. Nature of the test: In vitro antioxidant activity, ROS-Glo H2O2 assay in corneal dystrophy-like environment. The class given is cell-based. The following applies: compared to control group (corneal dystrophy-mimicking: UV 5 J/cm^2 + TGF-β1 10 ng/ml); sample 4 h before induction. Here is the method: PriNeu I medium, which is a serum-free medium, was supplemented with 10% fetal bovine serum, human epidermal growth factor (EGF), human vascular endothelial growth factor (VEGF), human insulin, human transferrin, sodium selenite, hydrocortisone, heparin, R estradiol, L-glutamine, penicillin/streptomycin, and G418 (geneticin). Human corneal endothelial cells (purchased from Creative Biolabs (NY, USA)) were seeded onto culture dishes coated with FNC Coating Mix (Athena Environmental Science, MD, USA) and incubated at 37° C. in a humidified 5% CO2 atmosphere.
To establish an intracellular environment similar to that of cells affected by corneal dystrophy (hereinafter referred to as “corneal dystrophy-like environment”), cellular signaling pathways involving reactive oxygen species (ROS) and transforming growth factor-beta (TGF-β), both known to be associated with corneal dystrophy, were activated. Human corneal endothelial cells were first cultured in standard medium for 24 hours, after which the medium was replaced with serum-free PriNeu I medium. The cells were then irradiated at an intensity of 5 J/cm^2 using a UV irradiation (BLX-Link, Vilber, France). Subsequently, the cells were treated with recombinant human TGF-β1 protein at a concentration of 10 ng/ml (Bon Opus, NJ, USA).
To determine the effect of the above-prepared lipo-hydroxamic acid derivatives on oxidative stress activity in corneal endothelial cells, human corneal endothelial cells were cultured at 1.5×10^4 cells per well in a 96-well plate coated with FNC Coating Mix for 18 to 24 hours. Subsequently, the cells were treated with the test samples (Samples 1, 3, and 5). […] The oxidative stress activity was determined by measuring the level of hydrogen peroxide (hereinafter referred to as “H2O2”) in the cell culture medium using the ROS-Glo™ H2O2 Assay (Promega, WI, USA) according to the manufacturer's instructions. The luminescence intensity was measured using the GloMax® Discover microplate reader (Promega) at an excitation wavelength of 485 nm and an emission wavelength of 520-530 nm.

As for `O=C(CCCCC1CCSS1)N(O)C(=O)CCCCC1CCSS1` (centres unmarked) [Sample 5, 5-[1,2]dithiolan-3-yl-pentanoic acid (5-[1,2]dithiolan-3-yl-pentanoyl-hydroxy-amide)], the “oxidative stress (H2O2 level in cell culture medium)” value was “significantly decreased”.
As for `CN(OCCO)C(=O)CCCC[C@@H]1CCSS1` [Sample 3, (R)-5-[1,2]dithiolan-3-yl-pentanoic acid (2-hydroxy-ethoxy)-methyl-amide], the “oxidative stress (H2O2 level in cell culture medium)” value is on record as “significantly decreased”.
